Earlier results on one molecule are cited in paper PMC12036195 (Journal of Hematology & Oncology, 2025).

SMILES strings stand for the structures.

In this data set the test system is r/r PTCL.

In the case of `N#CC[C@H](C1CCCC1)n1cc(-c2ncnc3[nH]ccc23)cn1` [ruxolitinib], the Response rate is 25%.
